According to patent US5360818A, “1,3-dioxane derivatives having protein kinase C inhibitory activity” (Sphinx Pharmaceuticals Corporation, priority 1993, dated 1994):

Tests used:
[1] = tested on: keratinocytes (NHEK cells); assay: Human keratinocyte inhibition (3H-thymidine incorporation); format: cell-based
Text: (§1) Cells were checked microscopically to determine detachment from surfaces, and plates were then harvested with a cell harvester (PHD, Cambridge Technology, Inc.) Filter papers corresponding to wells were placed in scintillation vials and counted to determine the amount of ^3 H-thymidine incorporated by the cells. Test agent response was compared to a positive control of cell wells with culture media only to determine the IC50. IC50 is the concentration of test compound required to inhibit fifty percent of the incorporation of ^3 H-thymidine into proliferating cells not exposed to test agent. Uptake of 3H-thymidine is a standard test for measuring the metabolism of cells. Cells which are actively proliferating take up ^3 H-thymidine whereas cells that are not proliferating take up ^3 H-thymidine at much slower rates or not at all. Test agents that inhibit the uptake of ^3 H-thymidine thus slow the growth of cells.
Proliferating keratinocytes (NHEK cells purchased from Clonetics, Inc., San Diego, Calif.) in second passage were grown in Keratinocyte Growth Medium (KGM) (Clonetics, Inc.) Cells were trypsinized (0.025% trypsin, Clonetics), counted with a hemacytometer (Scientific Products), and seeded at a concentration of 2,500 cells/well in a 96 well microtiter plate. After allowing cells to attach to the surface overnight, the culture medium was aspirated and replaced with 100 μl of fresh KGM. Test agents were evaluated and IC50 's were determined according to the ^3 H-thymidine incorporation procedures described as in Example 18. IC50 is the concentration of test compound required to inhibit fifty percent of the incorporation of ^3 H-thymidine into proliferating cells not exposed to test agent.

protein kinase C = assay: Protein kinase C inhibition assay (histone H1 phosphorylation); format: biochemical; details: rat brain enzyme; histone H1 substrate; 10 min
Experimental: A protein kinase C (PKC) assay is designed to duplicate the in vivo conditions required for protein kinase C function. Therefore, pH, salt and cofactor concentrations are similar to physiologic levels. A lysine rich histone, H1, was used in the assay as the phosphorylation acceptor-proteinbecause it is readily available and serves as a good substrate for protein kinase C. Enzyme was prepared from rat brain and purified to apparent homogeneity as determined by a single band on silver stained SDS-polyacrylamide.
In the screening assay, phosphatidylserine (PS) and DAG were co-sonicated to form unilamellar and multilamellar vesicles. The concentration of lipids in the assay were suboptimal to maximize the detection potential of the assay for inhibitors. Potential inhibitor compounds were added to the assay in dimethylsulfoxide at three concentrations to give final inhibitor concentrations of 4.3, 43 and 218 μM, respectively. The assay was started with the addition of enzyme and stopped after 10 min by the addition of 25% trichloroacetic acid (TCA) and 1.0 mg/ml bovine serum albumin (BSA). The radioactive histone product was retained and washed on glass fiber filters that allow the unreacted ^32 p-ATP to pass through. The amount of phosphorylation was determined by the radioactivity measured in a scintillation counter. Controls were included in every assay to measure background activity in the absence of enzyme, activity in the absence of lipids, and the maximum enzyme activity with saturating levels of the activator lipids.
Results of the protein kinase C assay are shown in Table 3 in the column labeled PKC. Results are shown as IC50, which is the concentration of test compound needed to inhibit 50% of the protein kinase C activity as compared with levels of protein kinase C activity in controls.

[2] = target: T1, cAMP dependent protein kinase (PKA) (Bos taurus, UniProt P00517); assay: cAMP dependent protein kinase (PKA) assay; format: biochemical; details: 4.3, 43 and 218 μM; 10 min
T1 construct: no regulatory subunit
Experimental: Compounds found to be inhibitors of protein kinase C were tested for inhibitory activity against cAMP dependent protein kinase (PKA). This enzyme, like protein kinase C, plays an important role in cell-cell communication and is activated by a second messenger, cAMP. Secondary screening against PKA is useful for ascertaining the selectivity of the compounds of the invention. The catalytic subunit of PKA (Sigma Chemical Company, St. Louis, Mo.) was mixed with buffer before addition of the inhibitor in dimethylsulfoxide (DMSO). Potential inhibitor compounds were added to the assay in dimethylsulfoxide at three concentrations to give final inhibitor concentrations of 4.3, 43 and 218 μM, respectively. The assay was started by the addition of 32P-ATP and the reaction was allowed to proceed for 10 min before stopping with 25% trichloroacetic acid (TCA) and 1.0 mg/ml bovine serum albumin (BSA). Phosphorylated protein was then isolated by filtration and the radioactivity was counted in a beta scintillation counter.

[3] = tested on: MCF-7 human breast tumor cell line; assay: Human tumor cell growth inhibition (3H-thymidine incorporation), MCF-7; format: cell-based; details: MCF7, 18 to 24 hrs
Text: (§2) MCF-7 a human breast tumor cell line and MCF-7/ADR an adriamycin resistant line of MCF-7 cells were obtained from the National Cancer Institute, Frederick, Md. CEM cells (ATCC accession number CCL 119) were obtained from the American Type Culture Collection, Rockville, Md.
(§3) Human tumor cells were trypsinized with 0.05% trypsin (GIBCO), counted with a hemacytometer and seeded at a concentration of 10,000 cells/well in a 96 well microtiter plate. After allowing cells to attach to the surface overnight, the culture medium was aspirated and replaced with 100 μl of fresh medium. Test agents were diluted to determine dose response at 2X final concentration and added in quadruplicate at 100 μl/well to bring the total volume of each well to 200 μl. The microtiter plate was then incubated at 37° C. 5% CO2 overnight for 18 to 24 hrs before ^3 H-thymidine was added at a concentration of 0.5 μCi/well in 50 μl culture medium. The plate was incubated again for 4 hrs under the same conditions as above. Supernatant was then aspirated and 50 μl of 0.05% trypsin (GIBCO) was added to each well.
as §1

[4] = tested on: MCF-7/ADR adriamycin resistant line of MCF-7 cells; assay: Human tumor cell growth inhibition (3H-thymidine incorporation), MCF-7/ADR; format: cell-based; details: NCI/ADR-RES, 18 to 24 hrs
Text: as §2, §3, §1

[5] = tested on: PMA-stimulated neutrophils; assay: Neutrophil superoxide anion release assay; format: cell-based; details: Homo sapiens, 0.5 h, 37° C., 30 minutes, cytochrome c reduction
Experimental: Neutrophils were isolated form whole blood collected from human volunteers. All reagent materials are obtained from Sigma Chemical Company with the exception of isotonic saline (Travenol Laboratories, Inc., Deerfield, Ill.) and lymphocyte separation medium (Organon Teknika, Durham, N.C.).
Whole blood was drawn and mixed with sodium heparin to a final concentration of 10 units/ml to prevent clotting. An equal volume of 3.0 % dextran in isotonic saline was added, mixed, and allowed to settle for 30 minutes to bind red blood cells (RBC). Supernatant was removed, underlayered with lymphocyte separation medium and centrifuged for 40 min at 400 xg in a centrifuge (Beckman GPR, Norcross, Ga.). The pellet was alternately taken up in 0.2% and 1.6% NaCl to lyse RBCs before washing with Hank's Balanced Salt Solution (HBSS). […]
The neutrophil cell concentration was adjusted to 2×10^6 cells/ml with HBSS before adding 0.8 ml cells to 12×75 mm polypropylene test tubes (Fisher Scientific). […] Optical density (OD) of cytochrome c was read in a spectrophotometer (Shimadzu) at 550 nm. […] Reducing cytochrome c increases its absorbance, and the change in OD of cytochrome c is proportional to the amount of […] produced by PMA stimulation. […] Inhibition is expressed as IC50 μM and is the amount of test compound that will inhibit fifty percent of the PMA-stimulated respiratory outburst, i.e. […] production.

With `CCCCCCCCCCCCCCCC(O)C(CO)[N+](=O)[O-]` (stereo not drawn) [Compound 3, Threo/erythro-2-Nitro-1,3-octadecanediol] the IC50 [1] was 6.5 µM.
With `CCCCCCCCCCCCCCC[C@@H]1OC(C)(C)OC[C@@H]1N` [Compound 13, Threo-(2S, 3S) -5-Amino-2,2-dimethyl-4-pentadecyl-1,3-dioxane] the IC50 (protein kinase C) was 121 µM, the “inhibitory activity against cAMP dependent protein kinase (PKA)” value (“inhibitory activity” below) [2] was “no effect on PKA activity” and the IC50 [3] was 5.1 µM. The IC50 [4] was 6.3 µM.
In the case of `CCCCCCCCCCCCCCC[C@@H]1OC(C)(C)OC[C@H]1NC(C)=N` (relative stereo) [Compound 10, Erythro-5-Acetamidino-2,2-dimethyl-4-pentadecyl-1,3-dioxane], the IC50 (protein kinase C) is reported as 29 µM, the “inhibitory activity” value [2] is reported as “no effect on PKA activity” and the IC50 [5] is reported as 1.52 µM.
Work on `CCCCCCCCCCCCCCCC1OCOCC1N` (stereo not shown) [Compound 24] yielded an IC50 (protein kinase C) of 83 µM.
In the case of `CCCCCCCCCCCCCCC[C@@H]1OC(c2ccccc2)OC[C@@H]1N` (stereo partly drawn) [Compound 19, Threo-5-Amino-2-phenyl-4-pentadecyl-1,3-dioxane], the IC50 (protein kinase C) is reported as 182 µM and the “inhibitory activity” value [2] is reported as “no effect on PKA activity”.
`CCCCCCCCCCCCCCC[C@@H]1OC(C)(C)OC[C@@H]1N` (relative stereo) [Compound 6, 2,2-Dimethyl-5-amino-4-pentadecyl-1,3-dioxane] was tested, and the IC50 (protein kinase C) was 120 µM, the “inhibitory activity” value [2] was “no effect on PKA activity” and the IC50 [3] was 6 µM. It also gave an IC50 [4] of 5.5 µM and an IC50 [1] of 4.7 µM.
`CCCCCCCCCCCCCCC[C@H](O)[C@H](CO)NC(=O)OC(C)(C)C` [Compound 11, Tert-Butyl (1S, 2S)-N-[2-hydroxy-1-(hydroxymethyl)heptadecyl]carbamate] showed an IC50 [3] of 3.2 µM and an IC50 [1] of 0.8 µM.
`CCCCCCCCCCCCCCC[C@@H]1OC(C)OC[C@@H]1N` (stereo partly drawn) [Compound 18, Threo-5-Amino-2-methyl-4-pentadecyl-1,3-dioxane] was tested, and the IC50 (protein kinase C) was 64 µM and the “inhibitory activity” value [2] was “no effect on PKA activity”.
With `CCCCCCCCCCCCCCC[C@@H]1OC(C)(C)OC[C@H]1N` (relative stereo) [Compound 5, Erythro-2,2-dimethyl-5-amino-4-pentadecyl-1,3-dioxane] the IC50 (protein kinase C) was 130 µM, the “inhibitory activity” value [2] was “no effect on PKA activity” and the IC50 [3] was 7.7 µM. For the same compound, the IC50 [4] was 6.6 µM and the IC50 [5] was 13.1 µM.
